Reference: patent US20220378821A1, “METHODS OF TREATING BRAF-MUTATED CANCER CELLS” (EFFECTOR THERAPEUTICS, INC., priority 2019, published 2022)
Where two headings read alike, the source gives them in different places.

Columns and labels:
[1] = system: RKO xenografts (BRAF mutant); experiment: In vivo tumor growth inhibition, RKO xenografts
Description: (§1) Athymic nude mice were purchased from Simonsen Laboratories (Gilroy, Calif.). C.B-17 SCID mice were purchased from Charles River (Hollister, Calif.). All animal studies were carried out in accordance with the guidelines established by the Institutional Animal Care and Use Committee at Explora BioLabs (San Diego, Calif.). COLO 205 and RKO cells were purchased from ATCC (Manassas, Va.). COLO 205 cells were maintained in RPMI-1640 supplemented with 10% fetal bovine serum. RKO cells were maintained in DMEM supplemented with 10% fetal bovine serum. For COLO 205 xenograft studies, COLO 205 (2×10^6) cells were implanted subcutaneously into athymic nude mice. On day 8 post-implant, tumors were measured (˜103 mm^3) and tumor-bearing animals were randomized into treatment groups. For RKO xenograft studies, RKO cells (5×10^6) were implanted subcutaneously into C.B-17 SCID mice. On day 11 post-implant, tumors were measured (˜153 mm^3) and tumor-bearing animals were randomized into treatment groups. Animals were dosed orally with vehicle or Compound Y daily. Tumor size and body weight were monitored during the course of the study. Tumor size was measured in length and width with a caliper 2× per week. The tumor volume was calculated by the formula L×W×W/2 according to NCI standards.

[2] = system: COLO 205 xenografts (BRAF mutant); experiment: In vivo tumor growth inhibition, COLO 205 xenografts; settings: for tumor growth inhibition (TGI): COLO 205 xenografts
Description: To test whether eIF4E inhibition affected the growth of BRAF mutant tumors in vivo, COLO 205 cells were grown as tumor xenografts in athymic nude mice and animals were dosed daily with vehicle or Compound Y, having the following structure
as §1

[3] = system: panel of 100 tumor cell lines; experiment: OncoPanel cell proliferation profiling (nuclear dye relative cell count); format: cell-based; settings: for IC50: across the panel of 100 cell lines
Description: (§2) In order to assess cellular phenotypes arising from eIF4E inhibition, Compound X was profiled in a panel of 100 tumor cell lines. Compound X was profiled using the OncoPanel Cell-Based Profiling Service (Eurofins Pharma Discovery Services, St. Charles, Mo.). Briefly, cell lines used in the panel were grown in RPMI 1640, 10% FBS, 2 mM L-alanyl-L-glutamine, 1 mM Na pyruvate, or a special medium. Cells were seeded into 384-well plates and incubated in a humidified atmosphere of 5% CO2 at 37° C. Compounds were added the day following cell seeding. At the same time, a time zero untreated cell plate was generated. After a 3-day incubation period, cells were fixed and stained with fluorescently-labeled antibodies and nuclear dye to allow imaging of nuclei, apoptotic cells and mitotic cells.
(§3) was serially diluted in half-log steps from 10 μM and assayed over 10 concentrations with a maximum assay concentration of 0.1% DMSO. Automated fluorescence microscopy was carried out using a Molecular Devices ImageXpress Micro XL high-content imager, and images were collected with a 4× objective. 16-bit TIFF images were acquired and analyzed with MetaXpress 5.1.0.41 software.
Cell proliferation was measured by the fluorescence intensity of an incorporated nuclear dye. The output is referred to as the relative cell count, where the measured nuclear intensity is transformed to percent of control (POC) using the following formula: […]
where Ix the nuclear intensity at concentration x, and I0 is the average nuclear intensity of the untreated vehicle wells.
Cellular response parameters were calculated using nonlinear regression to a sigmoidal single-site dose response model:
where y is a response measured at concentration x, A and B are the lower and upper limits of the response, C is the concentration at the response midpoint (EC50), and D is the Hill Slope (Fallahi-Sichani et al., 2013, Nat. Chem. Biol. 9:708-714).
Cell count IC50 is the test compound concentration at 50% of maximal possible response.

[4] = system: panel of 100 tumor cell lines; experiment: OncoPanel apoptosis profiling (activated caspase-3); format: cell-based
Description: as §2, §3
An antibody to activated caspase-3 was used to label cells from early to late stage apoptosis (Thornberry et al., 1998, Science 281:1312-1316). […] A 5-fold induction in the caspase-3 signal was scored as a significant apoptosis induction.

IC50 ([3]; 72 h, 3-day incubation, read-out: median IC50 value for cell proliferation) [µM]	IC50 ([3]; upper end printed as >10,000 nM, read-out: distribution of IC50 values for cell proliferation) [µM]	cell lines tested with IC50 values below the median ([3]; hematological, head and neck, NSCLC, melanoma, uterine and pancreatic tumor cell lines) [%]	SMILES	tolerability (body weight) ([1]; RKO study, no significant changes in body weight)	tumor growth inhibition (TGI) ([1]; RKO xenografts, 30 mg/kg orally daily) [%]	tolerability (body weight) ([2]; COLO 205 study, no significant changes in body weight)	tumor growth inhibition (TGI) ([2]; 3 mg/kg orally daily) [%]	tumor growth inhibition (TGI) ([2]; 30 mg/kg orally daily) [%]	BRAF mutant cell lines among those with significant induction of apoptosis ([4]; of the 36 cell lines with >5-fold activated caspase-3)	cell lines that showed significant induction of apoptosis (>5-fold induction of activated caspase-3) ([4]; of the panel of 100 cell lines)
			Cc1cc(-c2cc(Cl)ccc2OCCn2c(C)nc3cc(C(F)(F)F)c(N4CCN(C)CC4)c(C#N)c3c2=O)c2scc(C(=O)O)c2n1 [Compound Y]	well tolerated	54	well tolerated	49	89		
0.116	0.012 to 10	> 74	Cc1cc(-c2cc(Cl)ccc2OCCn2c(C)nc3cc(C(F)(F)F)c(CN4CCN(C)CC4)c(C#N)c3c2=O)c2scc(C(=O)O)c2n1 [Compound X]						10	36
